Experimental data as given in patent US8992990B2, “Magnetic nanocomposite for inhibiting/treating cancer and method for fabricating the same” (Chang Gung University, priority 2009, dated 2015).

Key:
[1] = tested on: mouse glioma cells (C6); experiment: In vitro toxicity / cell growth inhibition, XTT assay, C6 cells; format: cell-based; details: 100 μM, 12 hours later
Description: Place 150 μL of a mixture liquid containing 10000 mouse glioma cells (C6) into every well of a 96-well culture plate. Place the culture plates in a humidified incubator at a temperature of 37 C.° and with 5% CO2 to enable adherent growth of the cells. […] Once cell counting begins, remove RPMI1640 and add 120 μL of an XTT reaction liquid (2,3-Bis(2-methoxy-4-nitro-5-sulfophenyl)-2H-tetrazolium-5-carboxanili de inner salt).

[2] = tested on: human glioma cells (U87); experiment: In vitro toxicity / cell growth inhibition, XTT assay, U87 cells; format: cell-based; details: 100 μM, 72 hours later
Description: Place 150 μL of a mixture liquid containing 10000 human glioma cells (U87) into every well of a 96-well culture plate. Place the culture plates in a humidified incubator at a temperature of 37 C.° and with 5% CO2 to enable adherent growth of the cells. […] Once cell counting begins, remove RPMI1640 and add 120 μL of an XTT reaction liquid (2,3-Bis(2-methoxy-4-nitro-5-sulfophenyl)-2H-tetrazolium-5-carboxanili de inner salt).

[3] = Storage stability, residual activity by Bratton-Marshall assay
Excerpt: Use the Bratton-Marshall assay to detect the residual activities after the storages of 1-30 days for comparing the storage stabilities. Refer to FIGS. 5(a)-5(c).

[4] = Solubility in water

With O=NN(CCCl)C(=O)NCCCl [BCNU, 1,3-bis(2-chloroethyl)-1-nitrosourea] the “C6 cell growth-inhibition ratio” value [1] was 53%, the “U87 cell growth-inhibition ratio” value [2] was 49% and the half-life ([3]; storing at 4° C.) was 300 h. For the same molecule, the half-life ([3]; storing at 25° C.) was 22 h, the half-life ([3]; storing at 37° C.) was 12 h and the remains after storage ([3]; stored for 30 days) was 22%. The solubility in water [4] was “low solubility in water”.
